Assay results published in ChEMBL document CHEMBL6103617, “Chromene Dimers from Cultures of Basidiomycete Panus similis” (J Nat Prod, 2025).
pIC50: −log10 of the molar value.

Legend:
[1] = Cytotoxicity against African green monkey Vero cells by green fluorescent protein-based assay; format: toxicity, cell-based; conditions: African green monkey (Chlorocebus sabaeus)
MCF7 = assay: Cytotoxicity against human MCF7 cells by resazurin staining based analysis; format: functional, cell-based
NCI-H187 = assay: Cytotoxicity against human NCI-H187 cells by resazurin staining based analysis; format: functional, cell-based
[2] = Antioxidant activity assessed as DPPH radical scavenging activity incubated for 30 min by DPPH assay; format: functional

| SMILES | pIC50 [1] | pIC50 (MCF7) | pIC50 (NCI-H187) | pIC50 [2] |
| --- | --- | --- | --- | --- |
| CC1(C)Oc2ccc(O)cc2C(O)C1O (stereo not given) | < 3.62 | < 3.62 | 5.04 | < 2.72 |
| COc1ccc2c(c1)C(O)C(O)C(C)(C)O2 (stereo not given) | 3.66 | < 3.66 | < 3.64 | < 2.74 |
| CC1(C)C=Cc2cc3c(cc2O1)O[C@@H]1c2cc(O)c(O)cc2OC(C)(C)[C@@H]1O3 (racemic) | 4.34 | 4.18 | 4.35 | 3.43 |
| COc1cc2c(cc1O)OC(C)(C)C(O)C2 (racemic) | < 3.66 | < 3.66 | 4.26 | 3.74 |
| COc1cc2c(cc1O)OC(C)(C)[C@H]1[C@H]3[C@@H](O[C@@H]21)c1cc(OC)c(O)cc1OC3(C)C (racemic) | < 3.92 | < 3.92 | < 3.92 | 3.27 |
| CC1(C)Oc2cc(O)c(O)cc2[C@@H]2O[C@H]3c4cc(O)c(O)cc4OC(C)(C)[C@H]3[C@@H]21 (racemic) | < 3.89 | < 3.89 | 4.32 | 4.18 |
| O=C1O[C@H]([C@@H](O)CO)C(O)=C1O [ASCORBIC ACID] |  |  |  | 4.17 |
| COc1cccc2c1C(=O)c1c(O)c3c(c(O)c1C2=O)C[C@@](O)(C(=O)CO)C[C@@H]3O[C@H]1C[C@H](N)[C@H](O)[C@H](C)O1 [DOXORUBICIN] |  | 4.92 | 7.08 |  |
| Cc1c2ccncc2c(C)c2c1[nH]c1ccccc12 [ELLIPTECINE] | < 5.27 |  | 5.11 |  |
| CC/C(=C(\c1ccccc1)c1ccc(OCCN(C)C)cc1)c1ccccc1 [TAMOXIFEN] |  | 4.64 |  |  |
